Measurements from patent US5726012A, “Rapid, high capacity nucleic acid based assay” (E. I. du Pont de Nemours and Company, priority 1994, dated 1998).
Values after ≈ are worked out from the molar mass of the structure shown. Where two headings read alike, the source gives them in different places.

How the values were obtained:
[1] = MTT dye reduction cytotoxicity assay on parallel uninfected MT-2 cultures; type: cell-based, human; settings: human
Experimental: (§1) Compounds to be evaluated for antiviral activity were dissolved in DMSO and diluted at least 1:50 in culture medium, to 2× the highest concentration to be tested. Further, three-fold serial dilutions of the compound in culture medium were performed directly in U bottom microtiter plates (Nunc). After compound dilution, MT-2 cells, which had been sub-cultured one day prior to infection, were added to a final concentration of 5×10^5 cells/ml (1×10^5 cells/well). Cells were incubated with compounds in a volume of 150 μl for 30 minutes at 37° C. in a CO2 incubator. For evaluation of antiviral potency, appropriate dilutions of HIV RF virus stock (50 μl) were added to culture wells containing the cells and the dilutions of the compounds to be tested. Eight wells per plate were left uninfected with 50 μl of medium added instead of virus, while eight wells were infected in the absence of any antiviral compound. For evaluation of compound toxicity, parallel plates were cultured without virus infection. After three days of culture at 37° C. in a humidified chamber inside a CO2 incubator, all but 25 μl of medium/well was removed from the HIV infected plates. […] Alkaline phosphatase activity was detected by addition of 100 μl of substrate detection buffer, consisting of: 0.2 mM 4-methylumbelliferyl phosphate (MUBP, JBL Scientific) in 2.5M diethanolamine pH 8.9 (JBL), 10 mM MgCl2, 5 mM Zinc acetate dihydrate, and 5 mM n-hydroxyethyl-ethylene-diamine-triaceticacid. The plates were incubated at 37° C. and the fluorescence produced measured in a microplate fluorometer (Dynateck) exciting at 365 nm and emitting at 450 nm. […]
(§2) In order to assess the potential cytotoxicity of compounds being evaluated for antiviral efficacy, an MTT dye reduction assay was performed at the end of the three day culture period on the parallel, uninfected, but compound treated cultures. […] Solubilized MTT dye product was quantitated using an ELISA microplate reader at 570 nm. […]

[2] = test system: HIV RF (HIV-1 RNA) in MT-2 cells; assay: HIV-1 RNA microtiter plate compound evaluation assay in HIV-1 infected MT-2 cells (gag capture/reporter probes); type: cell-based, HIV-1 (strain RF)
Experimental: Compounds to be evaluated for antiviral activity were dissolved in DMSO and diluted at least 1:50 in culture medium, to 2× the highest concentration to be tested. Further, three-fold serial dilutions of the compound in culture medium were performed directly in U bottom microtiter plates (Nunc). After compound dilution, MT-2 cells, which had been sub-cultured one day prior to infection, were added to a final concentration of 5×10^5 cells/ml (1×10^5 cells/well). Cells were incubated with compounds in a volume of 150 μl for 30 minutes at 37° C. in a CO2 incubator. For evaluation of antiviral potency, appropriate dilutions of HIV RF virus stock (50 μl) were added to culture wells containing the cells and the dilutions of the compounds to be tested. Eight wells per plate were left uninfected with 50 μl of medium added instead of virus, while eight wells were infected in the absence of any antiviral compound. For evaluation of compound toxicity, parallel plates were cultured without virus infection. After three days of culture at 37° C. in a humidified chamber inside a CO2 incubator, all but 25 μl of medium/well was removed from the HIV infected plates. 37 μl of 5M GED containing the biotinylated capture oligo was added to the remaining medium and settled cells in each well to a final concentration of 3M GED, 50 nM biotinylated capture oligo. Hybridization of the biotinylated capture oligo to HIV-1 RNA in the cell lysate was carried out in the same microplate well by sealing the plate and incubating for 16-20 hours in a 37° C. incubator. 124 μl of distilled water was added to each well to dilute the hybridization reaction three-fold, and 150 μl aliquots of this diluted mixture was transferred to streptavidin coated microtiter plate wells. The biotin oligo-RNA complex solution was incubated with the immobilized streptavidin for two hours at room temperature, after which the plates were washed six times with DuPont ELISA plate wash buffer (phosphate buffered saline (PBS)/0.05% Tween 20) with a Denley plate washer. A second hybridization was carried out by adding 120 μl of hybridization cocktail containing 4× standard saline citrate (0.15M NaCl, 0.015 sodium citrate) (SSC), 0.66% Triton X-100 and 6.66% deionized formamide, 1 mg/ml bovine serum albumin (BSA) and 5 nM `gag` AP reporter oligo to each well. After hybridization for one hour at 37° C., the plate was again washed six times in PBS/0.05% Tween 20. Alkaline phosphatase activity was detected by addition of 100 μl of substrate detection buffer, consisting of: 0.2 mM 4-methylumbelliferyl phosphate (MUBP, JBL Scientific) in 2.5M diethanolamine pH 8.9 (JBL), 10 mM MgCl2, 5 mM Zinc acetate dihydrate, and 5 mM n-hydroxyethyl-ethylene-diamine-triaceticacid. The plates were incubated at 37° C. and the fluorescence produced measured in a microplate fluorometer (Dynateck) exciting at 365 nm and emitting at 450 nm. A standard curve, prepared by adding known amounts of pDAB 72 in vitro RNA transcript to wells containing lysed, uninfected cells, was run on each microtiter plate.
In order to standardize the virus innoculum used in the evaluation of compounds for anti-vital efficacy, a dose response to ddC was determined at several different dilutions of each virus stock to be used. A dilution of each stock of HIV RF virus stock which gaven an IC90 for ddC of 0.2 ug/ml was selected and used in subsequent compound evaluation assays.
The microtiter plate compound evaluation assay described in Example 9 above was employed to evaluate the efficacy of cyclohexamide, di-deoxycytidine (ddC) and XJ104 (N,N'-bis[tert-butoxycarbonyl-valyl]-1,6-diphenyl-2S,5S-diamino-3R,4R-dihydroxy(triphenylphosphine adduct)-hexane) as described in WO91/18866, the disclosure of which is hereby incorporated by reference, utilizing the HIV-1 `gag` capture and reporter probes described in Example 2.
In the figures below the IC90 and TC50 are indicated. […]

[3] = test system: MT-2 cells; assay: MTT dye reduction cytotoxicity assay on parallel uninfected MT-2 cultures; type: cell-based, human; settings: uninfected MT-2 cells, three days culture; 50% reduction of absorbance at 570 nm in MTT assay; 4320 min
Experimental: as §1, §2

[4] = TC50 to IC90 ratio of greater than 3 regarded as antiviral efficacy

In the case of `C[C@@H]1C[C@@H]([C@H](O)CC2CC(=O)NC(=O)C2)C(=O)[C@@H](C)C1` [cyclohexamide], the CC50 at 72 h ([1]; uninfected MT-2 cells, three days culture, 50% reduction of absorbance at 570 nm in MTT assay, read-out: TC50) is reported as 0.45 µg/mL (≈ 1.6 µM), the IC90 ([2]; Human immunodeficiency virus 1, MT2, 72 h, read-out: IC90 in the RNA assay) is reported as 0.45 µg/mL (≈ 1.6 µM) and the “specific anti-viral efficacy (IC90 in RNA assay compared with TC50 in MTT assay)” value [2, 4] is reported as “no specific anti-viral efficacy is apparent”.
In the case of `Nc1ccn([C@H]2CC[C@@H](CO)O2)c(=O)n1` [ddC, di-deoxycytidine], the CC50 at 72 h ([1]; mt-2 cells) is reported as greater than 50 µg/mL, the “specific anti-viral efficacy (IC90 in RNA assay compared with TC50 in MTT assay)” value [2] is reported as “displays anti-viral efficacy” and the IC90 ([2]; Human immunodeficiency virus 1, MT2, 72 h, HIV RF infected MT-2 cells, three days culture, 90% reduction of HIV-1 RNA, FIGS. 4-6, read-out: IC90 in the RNA assay) is reported as 0.13 µg/mL (≈ 0.615 µM). For the same compound, the IC90 ([2]; Human immunodeficiency virus 1, MT2, selected dilution of each HIV RF virus stock, read-out: IC90 for ddC used to standardize virus innoculum) was 0.2 µg/mL (≈ 0.947 µM).
With “N,N'-bis[tert-butoxycarbonyl-valyl]-1,6-diphenyl-2S,5S-diamino-3R,4R-dihydroxy(triphenylphosphine adduct)-hexane [XJ104]” the TC50 [3] was 2 µg/mL, the “IC90 in the RNA assay” value ([2]; HIV RF infected MT-2 cells, three days culture, 90% reduction of HIV-1 RNA, FIGS. 4-6) was 30 µg/mL and the “specific anti-viral efficacy (IC90 in RNA assay compared with TC50 in MTT assay)” value [2, 4] was “no specific anti-viral efficacy is apparent”.
